Test results reported in patent publication US7858621B2 (Amorepacific Corporation, priority 2006, dated 2010).
Where a name gives a salt, the structure may show the parent alone.

Target: T1, vanilloid receptor (Rattus norvegicus, UniProt O35433)
T1 construct: DRG nerve cells from the primary culture of 2 days were equilibrated; endogenous in cells; host or cells: primary culture of dorsal root ganglion neurons from neonatal SD rats
Assay: 45Ca influx test in cultured neonatal rat DRG neurons, inhibition of capsaicin response
Format: cell-based
Details: neonatal rat DRG neurons, capsaicin 0.5 μM, 45Ca influx; read-out: Antagonist Calcium Uptake Test (IC50)
Protocol: 1) Separation of Spinal Dorsal Root Ganglia (DRG) in Newborn Rats and Primary Culture Thereof
Neonatal (2-3 day old or younger than 2-3 day old) SD rats were put in ice for 5 minutes to anesthetize and disinfected with 70% ethanol. […] The DRG were incubated sequentially at 37° C. for 30 mins in 200 U/ml collagenase and 2.5 mg/ml trypsin, separately. The ganglia were washed twice with DME/F12 medium supplemented with 10% horse serum, triturated through a fire-polished Pasteur pipette, filtered through Nitex 80 membrane to obtain single cell suspension and the suspension was washed once more. This was subjected to centrifugation, then resuspended in cell culture medium at certain level of cell density. As the cell culture medium, DME/F12 medium supplemented with 10% horse serum was diluted with identical medium conditioned by C6 glioma cells 2 days on a confluent monolayer (1:1), and NGF (Nerve Growth Factor) was added to adjust 200 ng/ml as final concentration. After the cells were grown 2 days in medium where cytosine arabinoside (Ara-C, 100 μM) was added to kill dividing nonneuronal cells, medium was changed to one without Ara-C. The resuspended cells were plated at a density of 1500-2000 neurons/well onto Terasaki plates previously coated with 10 μg/ml poly-D-ornithine.
2) ^45Ca Influx Experiments
DRG nerve cells from the primary culture of 2 days were equilibrated by washing 4 times with HEPES (10 mM, pH 7.4)-buffered Ca^2+, Mg^2+-free HBSS (H-HBSS). The solution in each well was removed from the individual well. Medium containing the test compound plus capsaicin (final concentration 0.5 μM) and ^45Ca (final concentration 10 μCi/ml) in H-HBSS was added to each well and incubated at room temperature for 10 mins. Terasaki plates were washed five times with H-HBSS and dried at room temperature. To each well, 0.3% SDS (10 μl) was added to elute ^45Ca. After the addition of scintillation cocktail of into each well, the amount of ^45Ca influx into neuron was measured by counting radioactivity.

T1 sequence (O35433 whole entry): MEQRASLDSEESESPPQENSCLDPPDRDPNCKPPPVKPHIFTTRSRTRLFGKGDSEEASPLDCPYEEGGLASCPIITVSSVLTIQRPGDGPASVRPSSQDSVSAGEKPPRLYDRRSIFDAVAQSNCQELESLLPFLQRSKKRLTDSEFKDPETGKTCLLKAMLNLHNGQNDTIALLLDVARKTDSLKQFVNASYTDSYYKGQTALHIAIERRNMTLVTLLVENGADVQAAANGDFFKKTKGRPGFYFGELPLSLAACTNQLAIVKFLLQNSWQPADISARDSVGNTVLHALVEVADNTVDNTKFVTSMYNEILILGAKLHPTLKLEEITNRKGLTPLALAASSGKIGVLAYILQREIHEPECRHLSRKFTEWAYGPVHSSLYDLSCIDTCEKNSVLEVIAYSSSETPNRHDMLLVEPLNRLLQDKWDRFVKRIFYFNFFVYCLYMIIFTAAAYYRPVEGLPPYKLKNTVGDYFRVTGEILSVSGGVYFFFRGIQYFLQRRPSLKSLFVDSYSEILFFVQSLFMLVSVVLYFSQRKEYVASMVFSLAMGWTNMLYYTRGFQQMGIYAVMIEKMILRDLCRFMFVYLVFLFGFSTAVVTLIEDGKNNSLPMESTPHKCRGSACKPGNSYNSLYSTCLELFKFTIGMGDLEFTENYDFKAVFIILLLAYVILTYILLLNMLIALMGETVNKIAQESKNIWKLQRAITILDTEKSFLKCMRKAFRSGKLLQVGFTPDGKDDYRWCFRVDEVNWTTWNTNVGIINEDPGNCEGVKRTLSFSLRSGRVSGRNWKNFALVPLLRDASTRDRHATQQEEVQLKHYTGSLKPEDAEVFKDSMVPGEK

| Structure (SMILES) | IC50 [nM] |
| --- | --- |
| CS(=O)(=O)Nc1c(F)cc(CNC(=O)/C=C/c2ccc(C(F)(F)F)nc2-c2cccc(F)c2)cc1F [Example 201, N-(4-Methanesulfonylamino-3,5-difluoro-benzyl)-3-[2-(3-fluoro-phenyl)-6-trifluoromethyl-pyridin-3-yl]-acrylamide] | 420 |
| CC(C)Nc1nc(C(F)(F)F)ccc1/C=C/C(=O)N[C@H](C)c1ccc(NS(C)(=O)=O)c(F)c1 [Example 218, (R)—N-[1-(3-Fluoro-4-methanesulfonylamino-phenyl)-ethyl]-3-(2-isopropylamino-6-trifluoromethyl-pyridin-3-yl)-acrylamide] | 46 |
| CC(C)(C)c1ccc(/C=C/C(=O)NCc2ccc(NS(C)(=O)=O)c(Cl)c2)cn1 [Examples 2] | 1300 |
| CS(=O)(=O)Nc1ccc(CNC(=O)/C=C/c2ccc(N3CCCC3)nc2)cc1F [Example 25, N-(3-Fluoro-4-methanesulfonylamino-benzyl)-3-(6-pyrrolidin-1-yl-pyridin-3-yl)-acrylamide] | > 10000 |
| CCC(C)Nc1nc(C(F)(F)F)ccc1/C=C/C(=O)N[C@H](C)c1ccc(NS(C)(=O)=O)c(F)c1 (stereo partly drawn) [Example 210, (R)-3-(2-sec-Butylamino-6-trifluoromethyl-pyridin-3-yl)-N-[1-(3-fluoro-4-methanesulfonylamino-phenyl)-ethyl]-acrylamide] | 22 |
| CCCN(C)c1nc(C(F)(F)F)ccc1/C=C/C(=O)NCc1ccc(NS(C)(=O)=O)c(F)c1 [Example 158, N-(3-Fluoro-4-methanesulfonylamino-benzyl)-3-[2-(N-methyl-N-propyl-amino)-6-trifluoromethyl-pyridin-3-yl]-acrylamide] | 480 |
| CC[C@@H](C)c1nc(C(F)(F)F)ccc1/C=C/C(=O)NCc1ccc(NS(C)(=O)=O)c(C)c1 [Example 241, (R)-3-(2-sec-Butyl-6-trifluoromethyl-pyridin-3-yl)-N-1-(4-methanesulfonylamino-3-methyl-benzyl)-acrylamide] | 34 |
| Cc1cc(CNC(=O)/C=C/c2ccc(C(F)(F)F)nc2CCc2ccccc2)ccc1NS(C)(=O)=O [Example 172, N-(4-Methanesulfonylamino-3-methyl-benzyl)-3-(2-phenethyl-6-trifluoromethyl-pyridin-3-yl)-acrylamide] | 69 |
| CS(=O)(=O)Nc1ccc(CNC(=O)/C=C/c2ccc(C(F)(F)F)nc2N2CCC(O)C2)cc1F (stereo not drawn) [Example 56, N-(3-Fluoro-4-methanesulfonylamino-benzyl)-3-[2-(3-hydroxy-pyrrolidin-1-yl)-6-trifluoromethyl-pyridin-3-yl]-acrylamide] | > 10000 |
| CCNc1nc(C(F)(F)F)ccc1/C=C/C(=O)N[C@H](C)c1ccc(NS(C)(=O)=O)c(F)c1 [Example 246, N-[1-(3-Fluoro-4-methanesulfonylamino-phenyl)-ethyl]-3-(2-ethylamino)-6-trifluoromethyl-pyridin-3-yl-acrylamide] | 10 |
| CS(=O)(=O)Nc1ccc(CNC(=O)/C=C/c2cnc(Cl)cc2C(F)(F)F)cc1F [Example 53, 3-(6-Chloro-4-trifluoromethyl-pyridin-3-yl)-N-(3-fluoro-4-methanesulfonylamino-benzyl)-acrylamide] | > 10000 |
| CCC/C(=C\C(=O)NCc1ccc(NS(C)(=O)=O)c(Cl)c1)c1ccc(C(F)(F)F)nc1CCC [Example 272] | 740 |
| CC(C)Nc1nc(C(F)(F)F)ccc1/C=C/C(=O)NCc1ccc(NS(C)(=O)=O)c(F)c1 [Example 121, N-(3-Fluoro-4-methanesulfonylamino-benzyl)-3-(2-isopropylamino-6-trifluoromethyl-pyridin-3-yl)-acrylamide] | 120 |
| CC(C)Nc1nc(C(F)(F)F)ccc1/C=C/C(=O)NCc1ccc(NS(=O)(=O)C(F)(F)F)cc1 [Example 270, 3-(2-Isopropylamino-6-trifluoromethyl-pyridin-3-yl)-N-(4-trifluoromethanesulfonylamino-benzyl)-acrylamide] | > 10000 |
| CC(C)(C)c1ccc(/C=C/C(=O)NCc2ccc(NS(C)(=O)=O)c(F)c2)c(Br)n1 [Example 36, 3-(2-Bromo-6-tert-butyl-pyridin-3-yl)-N-(3-fluoro-4-methanesulfonylamino-benzyl)-acrylamide] | 180 |
| C[C@@H](NC(=O)/C=C/c1ccc(C(F)(F)F)nc1NCc1ccccc1)c1ccc(NS(C)(=O)=O)c(F)c1 [Example 195, (R)-3-(2-Benzylamino-6-trifluoromethyl-pyridin-3-yl)-N-[1-(3-fluoro-4-methanesulfonylamino-phenyl)-ethyl]-acrylamide] | 67 |

Now from value to molecule:

| IC50 [nM] | Structure (SMILES) |
| --- | --- |
| 580 | C#Cc1cc(CNC(=O)CCc2ccc(C(F)(F)F)nc2N2CCCC2)cc(F)c1NS(C)(=O)=O [Example 91, N-(3-Ethynyl-5-fluoro-4-methanesulfonylamino-benzyl)-3-(2-pyrrolidin-1-yl-6-trifluoromethyl-pyridin-3-yl)-propionamide] |
| 470 | CCOC(=O)C1CCCN(c2nc(C(F)(F)F)ccc2/C=C/C(=O)NCc2cc(F)c(NS(C)(=O)=O)c(C#N)c2)C1 (stereo not drawn) [Example 115, N-(3-Cyano-5-fluoro-4-methansulfonylamino-benzyl)-3-[2-(3-ethoxycarbonyl-piperid-1-yl)-6-trifluoromethyl-pyridin-3-yl]-acrylamide] |
| 59 | C#Cc1cc(CNC(=O)/C=C/c2ccc(C(C)(C)C)nc2Br)cc(F)c1NS(C)(=O)=O [Example 37, 3-(2-Bromo-6-tert-butyl-pyridin-3-yl)-N-(3-ethynyl-5-fluoro-4-methanesulfonylamino-benzyl)-acrylamide] |
| 56 | CCNc1nc(C(F)(F)F)ccc1/C=C/C(=O)NCc1cc(F)c(NS(C)(=O)=O)c(F)c1 [Example 257, N-(3,5-Difluoro-4-methanesulfonylamino-benzyl)-3-(2-ethylamino-6-trifluoromethyl-pyridin-3-yl)-acrylamide] |
| 130 | C#Cc1cc(CNC(=O)/C=C/c2ccc(C(F)(F)F)nc2OC(C)C)cc(F)c1NS(C)(=O)=O [Example 70, 3-(2-Isopropoxy-6-trifluoromethyl-pyridin-3-yl)-N-(3-ethynyl-5-fluoro-4-methanesulfonylamino-benzyl)-acrylamide] |
| 450 | C#Cc1cc(CNC(=O)/C=C/c2ccc(C(F)(F)F)nc2/C=C/c2ccccc2)cc(F)c1NS(C)(=O)=O [Example 157, N-(3-Ethynyl-5-fluoro-4-methanesulfonylamino-benzyl)-3-(2-styryl-6-trifluoromethyl-pyridin-3-yl)-acrylamide] |
| 310 | C#Cc1cc(CNC(=O)/C=C/c2ccc(C(F)(F)F)nc2-c2cccc(F)c2)cc(F)c1NS(C)(=O)=O [Example 120, N-(3-Ethynyl-5-fluoro-4-methanesulfonylamino-benzyl)-3-[2-(3-fluoro-phenyl)-6-trifluoromethyl-pyridin-3-yl]-acrylamide] |
| > 10000 | C#Cc1cc(CNC(=O)/C=C/c2ccc(N3CCOCC3)nc2)cc(F)c1NS(C)(=O)=O [Examples 23] |
| 4500 | C#Cc1cc(CNC(=O)/C=C/c2ccc(C(F)(F)F)nc2N2CCNCC2)cc(F)c1NS(C)(=O)=O [Example 116, N-(3-Ethynyl-5-fluoro-4-methanesulfonylamino-benzyl)-3-(2-piperaz-1-yl-6-trifluoromethyl-pyridin-3-yl)-acrylamide, HCl salt] |
| > 10000 | C#Cc1cc(CNC(=O)/C=C/c2ccc(C(F)(F)F)nc2N2CCC[C@H]2C(=O)OCc2ccccc2)cc(F)c1NS(C)(=O)=O [Example 71, N-(3-Ethynyl-5-fluoro-4-methanesulfonylamino-benzyl)-3-[2-(2-benzyloxycarbonyl-pyrrolidin-1-yl)-6-trifluoromethyl-pyridin-3-yl]-acrylamide] |
| 270 | C#Cc1cc(CNC(=O)/C=C/c2ccc(C(F)(F)F)nc2N(C)CCC)cc(F)c1NS(C)(=O)=O [Example 159, N-(3-Ethynyl-5-fluoro-4-methanesulfonylamino-benzyl)-3-[2-(N-methyl-N-propyl-amino)-6-trifluoromethyl-pyridin-3-yl]-acrylamide] |
| 51 | C#Cc1cc(CNC(=O)/C=C/c2ccc(C(F)(F)F)nc2CC(C)C)cc(F)c1NS(C)(=O)=O [Example 148, N-(3-Ethynyl-5-fluoro-4-methanesulfonylamino-benzyl)-3-(2-isobutyl-6-trifluoromethyl-pyridin-3-yl)-acrylamide] |
| 290 | C#Cc1cc(CNC(=O)/C=C/c2ccc(C(C)(C)C)nc2OC)cc(F)c1NS(C)(=O)=O [Example 11, 3-(6-tert-Butyl-2-methoxy-pyridin-3-yl)-N-(3-ethynyl-5-fluoro-4-methanesulfonylamino-benzyl)-acrylamide] |
| 32 | C=Cc1cc(CNC(=O)/C=C/c2ccc(C(F)(F)F)nc2NCC)cc(F)c1NS(C)(=O)=O [Example 250, 3-(2-Ethylamino-6-trifluoromethyl-pyridin-3-yl)-N-(3-fluoro-4-methanesulfonylamino-5-vinyl-benzyl)-acrylamide] |
